Test system: human breast cancer-cell line
Assay: Flow cytometry with fluorescent labeled-lectin of modified cells (Examples 8-10)
Assay type: cell-based
Details: 25 mg, PBS, 3 h at 37° C.
Procedure: α-Gal epitope-cyclic carbamate 6 (disaccharide) (25 mg) and human breast cancer-cell line 7 (2×10^6 number cell) were mixed in PBS buffer (5 mL) (see FIG. 3). The mixture was kept for 3 h at 37° C., and then the mixture was subjected to centrifugation to separate the cells from the medium.
α-Gal epitope-carbamate 6 (disaccharide) (25 mg) and human breast cancer-cell line 7 (1×10^6 number cell) were mixed in PBS buffer (5 mL) (see FIG. 3). The mixture was kept for 3 h at 37° C., and then the mixture was subjected to centrifugation to separate the cells from the medium.
α-Gal epitope-carbamate 6 (disaccharide) (25 mg) and human breast cancer-cell line 7 (5×10^5 number cell) were mixed in PBS buffer (5 mL) (see FIG. 3). The mixture was kept for 3 h at 37° C., and then the mixture was subjected to centrifugation to separate the cells from the medium.

Measured: Modification of cells shown with fluorescent labeled-lectin

O=C1NC2OC(CO)C(O)C(OC3OC(CO)C(O)C(O)C3O)C2O1 (stereo not drawn) [Compound 6, α-Gal epitope-cyclic carbamate]
modification has been proven: 1×10^6 cells | 2×10^6 cells | 5×10^5 cells
